Data: article PMC7838546, “A Thermostable, Modified Cathelicidin-Derived Peptide With Enhanced Membrane-Active Activity Against Salmonella enterica serovar Typhimurium” (Frontiers in Microbiology, 2021)
Read-outs that look alike come from different tables or passages of the source. Ends that are not written are not given here.

Key:
[1] = tested on: S. enterica serovar 4,5,12:i:- H2-045 (foodborne isolate); type: cell-based, Salmonella enterica serovar 4,5,12:i:-; details: H2-045, pork intestine, resistant Amp, T, intermediate Cp; for MIC: broth microdilution, 37°C, 24 h
Method: (§1) Salmonella enterica serovar Typhimurium ATCC 13311, 24 drug-resistant foodborne and eleven drug-resistant human borne S. enterica serovar Typhimurium and 4,5,12:i:- isolates (Table 1) were used as test microorganisms. They were previously isolated for molecular characterization in 2014 and kindly provided by Dr. Soraya Chaturongakul (Mahidol University, Thailand) ([Huoy et al., 2014]). All bacteria were cultured in Tryptic Soy Broth (TSB) and incubated at 37°C for 18 h. Mueller Hinton Broth (MHB) was then used to wash and rinse the bacteria. The bacterial suspensions were then diluted to obtain concentrations of 10^7 CFU/ml for inoculations.
(§2) A modified version of the National Committee for Clinical Laboratory Standards (NCCLS) broth microdilution method ([Steinberg et al., 1997]) was used to determine the minimum inhibitory concentrations (MICs) of peptide and compared to that of nisin. Fifty microliters of two-fold serial dilutions of each peptide [0.98–250 μg/ml in 0.01% (v/v) acetic acid and 0.2% (w/v) bovine serum albumin (BSA, Sigma-Aldrich, MO, United States)], were incubated with 50 μl of bacterial suspensions (approximately 10^7 CFU/ml) at 37°C for 24 h in a shaking incubator. MICs were taken as the lowest concentration of peptide at which growth was inhibited as observed by visual inspection. Bacterial cultures without peptides and uncultured broth were used as positive and negative controls, respectively. Minimal bactericidal concentrations (MBCs) were determined using a colony count assay ([Clinical Laboratory Standards Institute [CLSI], 2015]). Fifty microliters of samples from each non-turbid well in the MIC determination experiment was plated on Mueller Hinton Agar (MHA) and colonies were observed after overnight incubation at 37°C. MBCs were designated as the least concentration showing no colony growth on the plate. All of experiments were performed in triplicate.

[2] = tested on: S. enterica serovar Typhimurium ATCC 13311; type: cell-based, Salmonella enterica serovar Typhimurium
Method: In order to induce bacterial resistance to P7, S. enterica serovar Typhimurium ATCC 13311 were cultured for 10 serial passages in MHB in the presence of P7 in a series of concentrations ranging from 0.98 to 250 μg/ml ([Veldhuizen et al., 2013]). In each passage, 50 μl of bacterial samples at sublethal concentrations (the highest peptide concentration displaying 80% growth compared with growth in MHB) were used to determine MIC values by a broth microdilution assay.

[3] = tested on: S. enterica serovar 4,5,12:i:- H2-089 (foodborne isolate); test: MIC/MBC, broth microdilution and colony count; type: cell-based, Salmonella enterica serovar 4,5,12:i:-; details: H2-089, pork intestine, resistant Amp, broth microdilution, 37°C, 24 h
Method: as §1, §2

[4] = tested on: S. enterica serovar 4,5,12:i:- H2-072 (foodborne isolate); test: MIC/MBC, broth microdilution and colony count; type: cell-based, Salmonella enterica serovar 4,5,12:i:-; details: H2-072, pork intestine, resistant Amp, Ctx, C, T, SxT, intermediate Cp, broth microdilution, 37°C, 24 h
Method: as §1, §2

[5] = tested on: S. enterica serovar 4,5,12:i:- H1-027 (clinical isolate); test: MIC/MBC, broth microdilution and colony count; type: cell-based, Salmonella enterica serovar 4,5,12:i:-; details: H1-027, stool, resistant Amp, T, broth microdilution, 37°C, 24 h
Method: as §1, §2

[6] = tested on: S. enterica serovar 4,5,12:i:- H2-071 (foodborne isolate); test: MIC/MBC, broth microdilution and colony count; type: cell-based, Salmonella enterica serovar 4,5,12:i:-; details: H2-071, pork heart, resistant Amp, Ctx, C, T, SxT, intermediate Cp, broth microdilution, 37°C, 24 h
Method: as §1, §2

[7] = tested on: S. enterica serovar 4,5,12:i:- H2-047 (foodborne isolate); test: MIC/MBC, broth microdilution and colony count; type: cell-based, Salmonella enterica serovar 4,5,12:i:-; details: H2-047, pork liver, resistant Amp, intermediate Cp, broth microdilution, 37°C, 24 h
Method: as §1, §2

[8] = tested on: S. enterica serovar 4,5,12:i:- H2-067 (foodborne isolate); test: MIC/MBC, broth microdilution and colony count; type: cell-based, Salmonella enterica serovar 4,5,12:i:-; details: H2-067, pork kidney, resistant Amp, T, broth microdilution, 37°C, 24 h
Method: as §1, §2

[9] = tested on: S. enterica serovar 4,5,12:i:- H2-062 (foodborne isolate); test: MIC/MBC, broth microdilution and colony count; type: cell-based, Salmonella enterica serovar 4,5,12:i:-; details: H2-062, pork intestine, resistant Amp, T, intermediate Cp, broth microdilution, 37°C, 24 h
Method: as §1, §2

[10] = tested on: S. enterica serovar 4,5,12:i:- H2-065 (foodborne isolate); test: MIC/MBC, broth microdilution and colony count; type: cell-based, Salmonella enterica serovar 4,5,12:i:-; details: H2-065, pork liver, resistant Amp, T, broth microdilution, 37°C, 24 h
Method: as §1, §2

[11] = tested on: S. enterica serovar 4,5,12:i:- H2-090 (foodborne isolate); test: MIC/MBC, broth microdilution and colony count; type: cell-based, Salmonella enterica serovar 4,5,12:i:-; details: H2-090, pork intestine, resistant Amp, T, broth microdilution, 37°C, 24 h
Method: as §1, §2

[12] = tested on: S. enterica serovar 4,5,12:i:- H2-046 (foodborne isolate); test: MIC/MBC, broth microdilution and colony count; type: cell-based, Salmonella enterica serovar 4,5,12:i:-; details: H2-046, pork heart, resistant Amp, T, intermediate Cp, broth microdilution, 37°C, 24 h
Method: as §1, §2

[13] = tested on: S. enterica serovar 4,5,12:i:- H1-025 (clinical isolate); test: MIC/MBC, broth microdilution and colony count; type: cell-based, Salmonella enterica serovar 4,5,12:i:-; details: H1-025, urine, resistant Amp, Ctx, C, T, intermediate Cp, NA, SxT, broth microdilution, 37°C, 24 h
Method: as §1, §2

[14] = tested on: S. enterica serovar 4,5,12:i:- H2-055 (foodborne isolate); test: MIC/MBC, broth microdilution and colony count; type: cell-based, Salmonella enterica serovar 4,5,12:i:-; details: H2-055, pork liver, resistant Amp, T, broth microdilution, 37°C, 24 h
Method: as §1, §2

[15] = tested on: S. enterica serovar 4,5,12:i:- H2-082 (foodborne isolate); test: MIC/MBC, broth microdilution and colony count; type: cell-based, Salmonella enterica serovar 4,5,12:i:-; details: H2-082, pork intestine, resistant Amp, T, broth microdilution, 37°C, 24 h
Method: as §1, §2

KIAKRIWKILRR-NH2 [P7] was tested. Which MIC [1] did it give?
The MIC was 7.81 (7.81) μg/ml.

And the MBC ([1]; colony count on MHA)?
Its MBC is 7.81 (7.81) μg/ml.

And the MIC ([2]; serial passage 1)?
Its MIC is 3.91 µg/mL.

What about the MIC ([2]; serial passage 2) of the same substance?
The MIC was 3.91 µg/mL.

What about the MIC ([2]; serial passage 3) of the same substance?
The MIC was 3.91 µg/mL.

What about the MIC ([2]; serial passage 4) of the same substance?
The MIC was 3.91 µg/mL.

And the MIC ([2]; serial passage 5)?
Its MIC is 3.91 µg/mL.

And the MIC ([2]; serial passage 6)?
Its MIC is 3.91 µg/mL.

What about the MIC ([2]; serial passage 7) of the same substance?
The MIC was 3.91 µg/mL.

And the MIC ([2]; serial passage 8)?
The MIC was 3.91 µg/mL.

And the MIC ([2]; serial passage 9)?
The MIC was 3.91 µg/mL.

What about the MIC ([2]; serial passage 10) of the same substance?
The MIC was 3.91 µg/mL.

What about the MIC ([2]; through all bacterial passages (10 serial passages)) of the same substance?
Its MIC is 3.91 µg/mL.

Which results are given for “Nisin: authorized food preservative peptide, binds lipid II and forms membrane pores (ITSISLCTPGCKTGALMGCNMKTATCHCSIHVSK; cysteine pairing not given here; also: lantibiotic nisin-A; UniProt P13068 24-57, looked up)”?
MIC [3]: >1000 µg/mL; MIC [4]: >1000 µg/mL; MIC [5]: >1000 µg/mL; MIC [6]: >1000 µg/mL; MIC [7]: >1000 µg/mL; MIC [8]: >1000 µg/mL; MIC [9]: >1000 µg/mL; MIC [10]: >1000 µg/mL; MIC [11]: >1000 µg/mL; MIC [12]: >1000 µg/mL; MIC [13]: >1000 µg/mL; MIC [14]: >1000 µg/mL; MIC [15]: >1000 µg/mL; MIC [1]: >1000 µg/mL
